SMILES strings stand for the structures.

The target in this experiment is Glycogen synthase kinase-3 beta (Homo sapiens, UniProt P49841). Description: GSK3beta kinase inhibitor potency, dose response, biochemical, luminescence, cell-free homogeneous, retest (AID 434954).
Chain of Glycogen synthase kinase-3 beta (P49841 whole entry): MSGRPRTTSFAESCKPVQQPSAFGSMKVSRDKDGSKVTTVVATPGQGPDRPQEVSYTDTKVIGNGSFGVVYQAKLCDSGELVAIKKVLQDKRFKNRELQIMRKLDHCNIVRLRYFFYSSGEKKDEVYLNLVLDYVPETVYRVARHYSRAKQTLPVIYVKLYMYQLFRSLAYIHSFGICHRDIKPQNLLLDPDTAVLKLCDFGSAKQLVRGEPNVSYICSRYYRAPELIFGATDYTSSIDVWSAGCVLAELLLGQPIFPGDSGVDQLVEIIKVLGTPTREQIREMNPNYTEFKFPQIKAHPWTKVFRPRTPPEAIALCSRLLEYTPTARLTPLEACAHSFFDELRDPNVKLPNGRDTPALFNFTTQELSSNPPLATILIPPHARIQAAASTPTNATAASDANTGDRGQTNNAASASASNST
For orientation: EC50 means the concentration giving half of the maximal effect. As for `C=CCN1C(=O)C(Cc2ccc(Br)cc2)SC1=NN=Cc1ccco1` (stereo not given), the EC50 is > 300 µM. Take `C=C1C(c2ccc(OC)cc2)=[N+](O)C(C)=C(C)N1[O-]`: the EC50 is > 300 µM. As for `Cc1ccc(C(=O)c2coc3ccc(O)cc23)cc1` [SMR000539213], a half-maximal response (EC50) required 11.2 µM.

Compound `C/C(C=NNC(=O)c1nnn(-c2nonc2N)c1CN1CCCCC1)=C\c1ccccc1` [1-(4-azanyl-1,2,5-oxadiazol-3-yl)-N-[[(E)-2-methyl-3-phenyl-prop-2-enylidene]amino]-5-(piperidin-1-ylmethyl)-1,2,3-triazole-4-carboxamide] returned an EC50 of 28.6 µM. Consider `CC(C)(C)c1csc(NC(=O)c2cccnc2)n1` [SMR000496644], for which the EC50 is > 300 µM. As for `O=C(O)c1ccc(-c2ccc(CN=Nc3ccc([N+](=O)[O-])cc3)o2)cc1`, the EC50 is > 300 µM.

As for `O=C(Nc1cccc2c1C(=O)NC2=O)c1ccc(-n2c(O)ccc2O)cc1` [N-[1,3-bis(oxidanylidene)isoindol-4-yl]-4-[2,5-bis(oxidanylidene)pyrrolidin-1-yl]benzamide], the EC50 amounted to 77.1 µM. The figure for `CNc1nc(-c2ccccc2)nc(-c2ccccc2)c1C#N` [MLS000539511] is > 300 µM; for `COc1cc(/C=C2\Oc3cc(O)ccc3C2=O)ccc1O` it is 12.4 µM.

For `O=C(O)c1cc(-c2ccc(CN=Nc3ccc(Cl)cc3)o2)ccc1Cl` [2-chloro-5-{5-[2-(4-chlorophenyl)carbonohydrazonoyl]-2-furyl}benzoic acid], the EC50 is > 300 µM. As to `O=C(NCCCN1CCN(Cc2ccccc2)CC1)C1CCN(S(=O)(=O)N2CCCC2)CC1` [N-[3-[4-(phenylmethyl)-1-piperazinyl]propyl]-1-(1-pyrrolidinylsulfonyl)-4-piperidinecarboxamide], the concentration for a half-maximal effect (EC50) is > 300 µM. With `CC(N=O)c1ncc(C(F)(F)F)cc1Cl` (stereo not given) [MLS000763457], the EC50 is > 300 µM. Take `Nc1nc(Nc2ccccc2)nc(NCc2ccccc2)c1[N+](=O)[O-]`: the midpoint of the response, the EC50, lay at 13.3 µM. This counts as double-digit micromolar. For `CN(C)c1ccc(C=NNC(=O)c2nnn(-c3nonc3N)c2CN2CCCCCC2)cc1` [1-(4-amino-1,2,5-oxadiazol-3-yl)-5-(1-azepanylmethyl)-N-[[4-(dimethylamino)phenyl]methylideneamino]-4-triazolecarboxamide], the EC50 is > 300 µM.

For the compound `CCOC(=O)Cc1csc(NC(=O)c2c(O)c3ccccc3n(CCC(C)C)c2=O)n1` [SMR000284490], the EC50 is > 300 µM. As for `O=C(COc1ccc2ccccc2c1)Nc1cccc2c1C(=O)NC2=O` [MLS000375387], the EC50 is > 300 µM. On to `CCN(CC)S(=O)(=O)c1cccc(NC(=O)COc2ccc(Cl)cc2Br)c1` [2-(2-bromanyl-4-chloranyl-phenoxy)-N-[3-(diethylsulfamoyl)phenyl]ethanamide], for which the EC50 is > 300 µM.

For the compound `CCOC(=O)COC(=O)c1ccc(O)cc1` [(2-ethoxy-2-oxoethyl) 4-hydroxybenzoate], the EC50 is > 300 µM. For `CCCc1cc(NCc2ccccn2)n2nc(C)c(-c3ccccc3)c2n1` [MLS000762884], the EC50 was > 300 µM. For the compound `COc1ccc(-c2noc(CSc3nnc(-c4ccccc4)n3C)n2)cc1` [3-(4-methoxyphenyl)-5-[(4-methyl-5-phenyl-1,2,4-triazol-3-yl)sulfanylmethyl]-1,2,4-oxadiazole], the EC50 was > 300 µM. With `N#CC(C#N)c1nc2ccccc2nc1-[n+]1cccc([N-]C(=O)c2ccccc2)c1`, the EC50 is > 300 µM.

For the compound `Cc1nn(CC(=O)N2CCN(c3ccccn3)CC2)c(=O)c2cc3sccc3n12` [1-methyl-3-[2-oxidanylidene-2-(4-pyridin-2-ylpiperazin-1-yl)ethyl]thieno[3,4]pyrrolo[3,5-c][1,2,4]triazin-4-one], the EC50 was > 300 µM. As to `COc1ccc(OC)c(NCc2nnc(-c3ccccc3)o2)c1` [MLS001208999], the EC50 was > 300 µM. For the compound `CNc1nc(N)c([N+](=O)[O-])c(NCC2CCCO2)n1` (stereo not given) [SMR000436173], the half-maximal effective concentration (EC50) stood at 49.7 µM. This counts as double-digit micromolar. For `c1cncc(-c2nc(NCc3ccco3)c3ccccc3n2)c1` [N-(2-furanylmethyl)-2-(3-pyridinyl)-4-quinazolinamine], the EC50 is > 300 µM.

The values above are taken from BindingDB's records for doi:10.7270/Q2TX3CTT (Broad Institute, 2010).
